Laboratory results taken from US20230265151A1, “GIP/GLP1 CO-AGONIST COMPOUNDS” (priority 2020, published 2023).
Read-outs that look alike come from different tables or passages of the source. *1 amine or outer side, *2 acyl side, *3 side chain or, on linkers, in order; H or OH if unused. Where a SMILES comes first, the peptide text is derived from it. Side-chain parts run from the residue outwards. [ ]: non-standard residue; d: D form. The star is where a group is joined. Decanoyl(10-(4-HOOC-PhO)) = O=C(O)c1ccc(OCCCCCCCCCC(=O)*)cc1; Butanoyl(4-(4-tBuPh)) = CC(C)(C)c1ccc(CCCC(=O)*)cc1; αMePhe(2-F) = C[C@](N)(Cc1ccccc1F)C(=O)O; γGlu = O=C(O)[C@H](CCC(=O)[*:2])N[*:1]; C14 diacid = O=C(O)CCCCCCCCCCCCC(=O)*; αMeY = C[C@](N)(Cc1ccc(O)cc1)C(=O)O; 4Pal = N[C@@H](Cc1ccncc1)C(=O)O; αMeL = CC(C)C[C@](C)(N)C(=O)O; Orn = NCCC[C@H](N)C(=O)O; AEEA = NCCOCCOCC(=O)O; Aib = CC(C)(N)C(=O)O

How the values were obtained:
Type in all cases: cell-based
[1] = biological target: T1, hGCGR (Homo sapiens, UniProt P47871); assay: Functional cAMP formation (HTRF) in HEK-293 clonal cells expressing hGCGR, 0.1% bovine casein, without or with 1.0% human serum albumin
T1 construct: expressed in transfected cells
Outline: (§1)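 Cells were stimulated with peptide for 30 min at 37° C, then lysed in buffer carrying cAMP-d2 and anti-cAMP Eu3+-cryptate for a competitive HTRF read after at least 60 min at room temperature. The 665/620 nm ratio was converted to nM cAMP against a standard curve.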

[2] = biological target: hGLP-1R (Homo sapiens, UniProt P43220); assay: Functional cAMP formation (HTRF) in HEK-293 clonal cells expressing hGLP-1R, 0.1% bovine casein, without or with 1.0% human serum albumin; set-up: expressed in transfected cells; conditions: for EC50: geometric mean
Outline: as §1

[3] = biological target: T2, hGIPR (Homo sapiens, UniProt P48546); assay: Functional cAMP formation (HTRF) in HEK-293 clonal cells expressing hGIPR, 0.1% bovine casein, without or with 1.0% human serum albumin; conditions: for EC50: geometric mean
T2 construct: expressed in transfected cells
T2 sequence (P48546 22-466): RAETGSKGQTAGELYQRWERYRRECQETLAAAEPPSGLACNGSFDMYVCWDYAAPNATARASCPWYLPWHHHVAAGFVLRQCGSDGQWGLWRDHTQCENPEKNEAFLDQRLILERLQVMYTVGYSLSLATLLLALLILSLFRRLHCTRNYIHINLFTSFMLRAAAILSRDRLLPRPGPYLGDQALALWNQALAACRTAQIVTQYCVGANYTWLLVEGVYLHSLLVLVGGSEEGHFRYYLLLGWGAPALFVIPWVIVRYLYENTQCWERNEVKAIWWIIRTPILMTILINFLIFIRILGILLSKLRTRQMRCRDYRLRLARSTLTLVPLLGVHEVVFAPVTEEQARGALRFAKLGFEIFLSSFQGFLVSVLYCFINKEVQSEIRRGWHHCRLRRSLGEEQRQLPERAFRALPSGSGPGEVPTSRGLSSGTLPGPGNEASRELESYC
Outline: as §1

[4] = 0.1% bovine casein and 1.0% human serum albumin, 37° C., geometric mean, read-out: hGCGR EC50, nM (SEM, n)
[5] = cAMP, incubated at 37° C., 0.1% bovine casein (no human serum albumin), geometric mean, read-out: hGCGR EC50, nM (SEM, n)
[6] = 0.1% bovine casein and 1.0% human serum albumin, 37° C., read-out: hGLP-1R EC50, nM (SEM, n)
[7] = HEK293, percent of maximal response to GLP-1(7-36)NH2, 37° C., 0.1% bovine casein, arithmetic mean, read-out: hGLP-1R Emax, % ± SEM
[8] = cAMP, incubated at 37° C., 0.1% bovine casein (no human serum albumin), read-out: hGLP-1R EC50, nM (SEM, n)
[9] = HEK293, 0.1% bovine casein and 1.0% human serum albumin, 37° C., percent of maximal response to GIP(1-42)NH2, read-out: hGIPR Emax, % ± SEM
[10] = HEK293, percent of maximal response to GIP(1-42)NH2, 37° C., 0.1% bovine casein, arithmetic mean, read-out: hGIPR Emax, % ± SEM

hGLP-1R, sequence (P43220 24-463): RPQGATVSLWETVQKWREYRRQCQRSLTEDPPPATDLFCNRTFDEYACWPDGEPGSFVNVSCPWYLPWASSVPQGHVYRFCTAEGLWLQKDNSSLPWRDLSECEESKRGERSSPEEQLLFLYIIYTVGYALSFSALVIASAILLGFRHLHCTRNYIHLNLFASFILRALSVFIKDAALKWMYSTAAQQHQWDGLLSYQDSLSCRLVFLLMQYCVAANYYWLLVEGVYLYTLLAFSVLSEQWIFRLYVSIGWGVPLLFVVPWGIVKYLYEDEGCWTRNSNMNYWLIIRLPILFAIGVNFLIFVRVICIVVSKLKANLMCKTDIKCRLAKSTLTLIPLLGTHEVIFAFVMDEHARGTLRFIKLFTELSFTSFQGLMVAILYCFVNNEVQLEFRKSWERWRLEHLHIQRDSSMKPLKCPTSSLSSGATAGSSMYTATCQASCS
T1 sequence (P47871 26-477): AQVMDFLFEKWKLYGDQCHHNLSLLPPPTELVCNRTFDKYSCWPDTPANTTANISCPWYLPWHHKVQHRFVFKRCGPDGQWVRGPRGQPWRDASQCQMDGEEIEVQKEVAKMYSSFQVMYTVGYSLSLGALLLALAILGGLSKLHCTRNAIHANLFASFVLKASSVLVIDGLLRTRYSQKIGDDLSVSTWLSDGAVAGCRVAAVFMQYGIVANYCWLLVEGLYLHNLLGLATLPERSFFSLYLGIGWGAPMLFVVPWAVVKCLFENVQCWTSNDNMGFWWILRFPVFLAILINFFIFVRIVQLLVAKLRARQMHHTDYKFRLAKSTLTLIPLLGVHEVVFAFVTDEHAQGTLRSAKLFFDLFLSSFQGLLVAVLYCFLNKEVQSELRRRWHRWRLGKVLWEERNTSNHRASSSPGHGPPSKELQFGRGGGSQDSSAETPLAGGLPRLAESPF

SMILES	EC50 [1, 4]	EC50 [1, 5]	EC50 [2, 6]	Emax [2, 7]	EC50 [2, 8]	Emax [3, 9]	Emax [3, 10]	further results
CC[C@H](C)[C@H](NC(=O)[C@H](CCCN)NC(=O)[C@H](CC(=O)O)NC(=O)[C@H](CC(C)C)NC(=O)[C@](C)(CC(C)C)NC(=O)[C@@H](NC(=O)[C@H](CO)NC(=O)[C@H](Cc1ccncc1)NC(=O)[C@H](CC(=O)O)NC(=O)[C@H](CO)NC(=O)[C@@H](NC(=O)[C@](C)(Cc1ccccc1F)NC(=O)[C@@H](NC(=O)CNC(=O)[C@H](CCC(=O)O)NC(=O)C(C)(C)NC(=O)[C@@H](N)Cc1ccc(O)cc1)[C@@H](C)O)[C@@H](C)O)[C@@H](C)CC)C(=O)N[C@@H](C)C(=O)N[C@@H](CCC(N)=O)C(=O)NC(C)(C)C(=O)N[C@@H](CCC(=O)O)C(=O)N[C@@H](Cc1ccccc1)C(=O)N[C@H](C(=O)N[C@H](CCC(=O)O)C(=O)N[C@@](C)(Cc1ccc(O)cc1)C(=O)N[C@@H](CC(C)C)C(=O)N[C@H](C(=O)N[C@@H](CCCCNC(=O)COCCOCCNC(=O)COCCOCCNC(=O)CC[C@H](NC(=O)CCCc1ccc(C(C)(C)C)cc1)C(=O)O)C(=O)NCC(=O)NCC(=O)N1CCC[C@H]1C(=O)N[C@@H](CO)C(=O)N[C@@H](CO)C(=O)NCC(=O)N[C@@H](C)C(=O)N1CCC[C@H]1C(=O)N1CCC[C@H]1C(=O)N1CCC[C@H]1C(=O)N[C@@H](CO)C(=O)N[C@@H](CCCCNC(=O)COCCOCCNC(=O)COCCOCCNC(=O)CC[C@H](NC(=O)CCCc1ccc(C(C)(C)C)cc1)C(=O)O)C(N)=O)[C@@H](C)CC)[C@@H](C)CC [Example 206] (H-Y[Aib]EGT[αMePhe(2-F)]TSD[4Pal]SI[αMeL]LD[Orn]IAQ[Aib]EFI[dE][αMeY]LIK([AEEA-AEEA-γGlu-Butanoyl(4-(4-tBuPh))])GGPSSGAPPPSK([AEEA-AEEA-γGlu-Butanoyl(4-(4-tBuPh))])-NH2)	> 9950 nM	> 9950 nM	3.03 nM	100%	0.299 nM	77.6%	96.4%	Emax ([2]; HEK293, 0.1% bovine casein and 1.0% human serum albumin, 37° C., percent of maximal response to GLP-1(7-36)NH2, read-out: hGLP-1R Emax, % ± SEM): 98.1%; EC50 ([3]; 0.1% bovine casein and 1.0% human serum albumin, 37° C., read-out: hGIPR EC50, nM (SEM, n)): 0.242 nM; EC50 ([3]; cAMP, incubated at 37° C., 0.1% bovine casein (no human serum albumin), read-out: hGIPR EC50, nM (SEM, n)): 0.0204 nM
CC[C@H](C)[C@H](NC(=O)[C@H](CC(C)C)NC(=O)[C@](C)(Cc1ccc(O)cc1)NC(=O)[C@@H](CCC(=O)O)NC(=O)[C@@H](NC(=O)[C@H](Cc1ccccc1)NC(=O)[C@H](CCC(=O)O)NC(=O)C(C)(C)NC(=O)[C@H](CCC(N)=O)NC(=O)[C@H](C)NC(=O)[C@H](CCCCNC(=O)[C@@H](N)CCCCNC(=O)[C@@H](N)CCCCNC(=O)CC[C@H](NC(=O)CCCCCCCCCCCCC(=O)O)C(=O)O)NC(=O)[C@H](CCCN)NC(=O)[C@H](CC(=O)O)NC(=O)[C@H](CC(C)C)NC(=O)[C@](C)(CC(C)C)NC(=O)[C@@H](NC(=O)C(C)(C)NC(=O)[C@@H](NC(=O)[C@H](CC(=O)O)NC(=O)[C@H](CO)NC(=O)[C@@H](NC(=O)[C@](C)(Cc1ccccc1F)NC(=O)[C@@H](NC(=O)CNC(=O)[C@H](CCC(=O)O)NC(=O)C(C)(C)NC(=O)[C@@H](N)Cc1ccc(O)cc1)[C@@H](C)O)[C@@H](C)O)C(C)C)[C@@H](C)CC)[C@@H](C)CC)C(=O)N[C@@H](CCC(=O)O)C(=O)NCC(=O)NCC(=O)N[C@@H](CCCCNC(=O)[C@@H](N)CCCCNC(=O)[C@@H](N)CCCCNC(=O)CC[C@H](NC(=O)CCCCCCCCCCCCC(=O)O)C(=O)O)C(=O)N[C@@H](CO)C(=O)N[C@@H](CO)C(=O)NCC(=O)N[C@@H](C)C(=O)N1CCC[C@H]1C(=O)N1CCC[C@H]1C(=O)N1CCC[C@H]1C(=O)N[C@@H](CO)C(N)=O [Example 165]	–	> 9950 nM	–	94.3%	0.291 nM	–	96.1%	–
CC[C@H](C)[C@H](NC(=O)[C@H](CCCN)NC(=O)[C@H](CC(=O)O)NC(=O)[C@H](CC(C)C)NC(=O)[C@](C)(CC(C)C)NC(=O)[C@@H](NC(=O)C(C)(C)NC(=O)[C@H](Cc1ccc(O)cc1)NC(=O)[C@H](CC(=O)O)NC(=O)[C@H](CO)NC(=O)[C@@H](NC(=O)[C@](C)(Cc1ccccc1F)NC(=O)[C@@H](NC(=O)CNC(=O)[C@H](CCC(=O)O)NC(=O)C(C)(C)NC(=O)[C@@H](N)Cc1ccc(O)cc1)[C@@H](C)O)[C@@H](C)O)[C@@H](C)CC)C(=O)N[C@@H](C)C(=O)N[C@@H](CCC(N)=O)C(=O)NC(C)(C)C(=O)N[C@@H](CCCCNC(=O)COCCOCCNC(=O)CC[C@H](NC(=O)CCCCCCCCCOc1ccc(C(=O)O)cc1)C(=O)O)C(=O)N[C@@H](Cc1ccccc1)C(=O)N[C@H](C(=O)N[C@H](CCC(=O)O)C(=O)N[C@@](C)(Cc1ccc(O)cc1)C(=O)N[C@@H](CC(C)C)C(=O)N[C@H](C(=O)N[C@@H](CCCCNC(=O)COCCOCCNC(=O)CC[C@H](NC(=O)CCCCCCCCCOc1ccc(C(=O)O)cc1)C(=O)O)C(=O)NCC(=O)NCC(=O)N1CCC[C@H]1C(=O)N[C@@H](CO)C(=O)N[C@@H](CO)C(=O)NCC(=O)N[C@@H](C)C(=O)N1CCC[C@H]1C(=O)N1CCC[C@H]1C(=O)N1CCC[C@H]1C(=O)N[C@@H](CO)C(N)=O)[C@@H](C)CC)[C@@H](C)CC [Example 376] (H-Y[Aib]EGT[αMePhe(2-F)]TSDY[Aib]I[αMeL]LD[Orn]IAQ[Aib]K([AEEA-γGlu-Decanoyl(10-(4-HOOC-PhO))])FI[dE][αMeY]LIK([AEEA-γGlu-Decanoyl(10-(4-HOOC-PhO))])GGPSSGAPPPS-NH2)	–	–	–	–	–	–	–	EC50 ([1]; hGCGR EC50, nM (SEM, n), cAMP, 37° C., 0.1% bovine casein (no human serum albumin), geometric mean): > 9950 nM; EC50 ([1]; hGCGR EC50, nM (SEM, n), cAMP, 37° C., 0.1% bovine casein and 1.0% human serum albumin, geometric mean (SEM, n)): > 9950 nM; Emax ([2]; HEK293, read-out: hGLP-1R Emax, % ± SEM, cAMP, 37° C., 0.1% bovine casein and 1.0% human serum albumin, percent of maximal response to GLP-1(7-36)NH2): 121%; EC50 ([2]; hGLP-1R EC50, nM (SEM, n), cAMP, 37° C., 0.1% bovine casein (no human serum albumin)): 0.539 nM; Emax ([3]; HEK293, read-out: hGIPR Emax, % ± SEM, cAMP, 37° C., 0.1% bovine casein and 1.0% human serum albumin, percent of maximal response to GIP(1-42)NH2): 88.3%; EC50 ([3]; hGIPR EC50, nM (SEM, n), cAMP, 37° C., 0.1% bovine casein (no human serum albumin)): 0.0281 nM
CC[C@H](C)[C@H](NC(=O)[C@H](CC(C)C)NC(=O)[C@](C)(Cc1ccc(O)cc1)NC(=O)[C@@H](CCC(=O)O)NC(=O)[C@@H](NC(=O)[C@H](Cc1ccccc1)NC(=O)[C@H](CCCCNC(=O)COCCOCCNC(=O)COCCOCCNC(=O)CC[C@H](NC(=O)CCCCCCCCCCCCC(=O)O)C(=O)O)NC(=O)C(C)(C)NC(=O)[C@H](CCC(N)=O)NC(=O)[C@H](C)NC(=O)[C@H](CCCCNC(=O)COCCOCCNC(=O)COCCOCCNC(=O)CC[C@H](NC(=O)CCCCCCCCCCCCC(=O)O)C(=O)O)NC(=O)[C@H](CCCN)NC(=O)[C@H](CC(=O)O)NC(=O)[C@H](CC(C)C)NC(=O)[C@](C)(CC(C)C)NC(=O)[C@@H](NC(=O)[C@H](CO)NC(=O)[C@H](Cc1ccc(OC)cc1)NC(=O)[C@H](CC(=O)O)NC(=O)[C@H](CO)NC(=O)[C@@H](NC(=O)[C@](C)(Cc1ccccc1F)NC(=O)[C@@H](NC(=O)CNC(=O)[C@H](CCC(=O)O)NC(=O)C(C)(C)NC(=O)[C@@H](N)Cc1ccc(O)cc1)[C@@H](C)O)[C@@H](C)O)[C@@H](C)CC)[C@@H](C)CC)C(=O)N[C@@H](CCC(=O)O)C(=O)NCC(=O)NCC(=O)N1CCC[C@H]1C(=O)N[C@@H](CO)C(=O)N[C@@H](CO)C(=O)NCC(=O)N[C@@H](C)C(=O)N1CCC[C@H]1C(=O)N1CCC[C@H]1C(=O)N1CCC[C@H]1C(=O)N[C@@H](CO)C(N)=O [Example 259] (H-Y[Aib]EGT[αMePhe(2-F)]TSDY(Me)SI[αMeL]LD[Orn]K([AEEA-AEEA-γGlu-C14 diacid])AQ[Aib]K([AEEA-AEEA-γGlu-C14 diacid])FI[dE][αMeY]LIEGGPSSGAPPPS-NH2)	> 9950 nM	–	28.9 nM	–	–	66.4%	–	EC50 ([1]; cAMP, 37° C., 0.1% bovine casein (no human serum albumin), geometric mean, read-out: hGCGR EC50, nM (SEM, n)): > 9950 nM; EC50 ([2]; cAMP, 37° C., 0.1% bovine casein (no human serum albumin), read-out: hGLP-1R EC50, nM (SEM, n)): 0.362 nM; Emax ([3]; HEK293, cAMP, 37° C., 0.1% bovine casein, percent of maximal response to GIP(1-42)NH2, arithmetic mean, read-out: hGIPR Emax, % ± SEM): 111%; EC50 ([3]; cAMP, 37° C., 0.1% bovine casein (no human serum albumin), read-out: hGIPR EC50, nM (SEM, n)): 0.0198 nM
